Data reported in US20240092802A1, “MU-OPIOID RECEPTOR AGONISTS AND USES THEREFOR” (Kures, Inc., priority 2020, published 2024).
pEC50: −log10 of the molar value. Values joined by “and” are separate entries in the source; they are usually repeats but may differ in a detail not shown here. Identical values can stand only once. Counter-ions that a name gives are not always drawn. Like-named read-outs stand apart in the source and are kept apart here.

What was measured:
[1] = target: Mouse MOR (Mus musculus (Mouse), UniProt P42866); test: BRET G protein activation assay, mouse MOR in transfected HEK-293T cells; assay type: cell-based; conditions: mean ± SEM
Mouse MOR, sequence (P42866 whole entry, looked up, the tested form may be a part): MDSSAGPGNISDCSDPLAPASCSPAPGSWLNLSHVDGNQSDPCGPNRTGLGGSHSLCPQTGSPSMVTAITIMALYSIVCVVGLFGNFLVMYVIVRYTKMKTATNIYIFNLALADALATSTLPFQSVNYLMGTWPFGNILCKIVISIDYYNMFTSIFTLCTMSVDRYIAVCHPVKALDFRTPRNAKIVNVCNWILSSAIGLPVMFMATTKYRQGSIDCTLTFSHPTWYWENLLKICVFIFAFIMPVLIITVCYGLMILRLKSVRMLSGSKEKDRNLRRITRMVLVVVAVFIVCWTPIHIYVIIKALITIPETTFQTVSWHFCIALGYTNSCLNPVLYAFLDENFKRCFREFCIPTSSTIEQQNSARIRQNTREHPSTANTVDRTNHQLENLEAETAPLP
Text: (§1) Transfection. Human or mouse MOR cDNA was transfected alongside GαoB with RLuc8 inserted at position 91 (GαoB-RLuc8), Gβ1 (β1), and Gγ2 fused to the full-length mVenus at its N terminus (mVenus γ2) into HEK-293T cells (5×10^6 cells/plate) in 10-cm dishes using PEI (Polysciences Inc.; Warrington, PA) in a 1:1 ratio diluted in Opti-MEM (Life Technologies Corp.; Grand Island, NY) to assay for G protein activation as described previously (Rives, M.-L. et al. J. Biol. Chem. 2012, 287, 27050-4; Negri, A.; Rives, M.-L.; Caspers, M. J. et al. J. Chem. Inf. Model. 2013, 53, 521-526). Cells were maintained in the Dulbecco's Modified Eagle Medium (high glucose #11965; Life Technologies) supplemented with 10% FBS (Premium Select, Atlanta Biologicals; Atlanta, GA) and 100 U/mL penicillin and 100 μg/mL streptomycin (#15140, Life Technologies). After 24 hours the media was changed, and the experiment was performed 24 hours later (48 hours after transfection).
(§2) BRET. Transfected cells were dissociated and resuspended in phosphate-buffered saline (PBS). Approximately 200,000 cells/well were added to a black-framed, white well 96-well plate (#60050; Perkin Elmer; Waltham, MA). The microplate was centrifuged and the cells were resuspended in PBS. Then 5 μM of the luciferase substrate coelenterazine H was added to each well for 5 minutes. Following coelenterazine H addition, ligands were added and the BRET signal was measured at 5 minutes on a PHERAstar FS plate reader. Quantification of the BRET signal required calculating the ratio of the light emitted by the energy acceptor, mVenus (510-540 nm), over the light emitted by the energy donor, RLuc8 (485 nm). […] Dose response curves were fit using three-parameter logistics equation in GraphPad Prism 6.

[2] = target: Human MOR (Homo sapiens (Human), UniProt P35372); test: BRET G protein activation assay, human MOR in transfected HEK-293T cells; assay type: cell-based
Human MOR, sequence (P35372 whole entry): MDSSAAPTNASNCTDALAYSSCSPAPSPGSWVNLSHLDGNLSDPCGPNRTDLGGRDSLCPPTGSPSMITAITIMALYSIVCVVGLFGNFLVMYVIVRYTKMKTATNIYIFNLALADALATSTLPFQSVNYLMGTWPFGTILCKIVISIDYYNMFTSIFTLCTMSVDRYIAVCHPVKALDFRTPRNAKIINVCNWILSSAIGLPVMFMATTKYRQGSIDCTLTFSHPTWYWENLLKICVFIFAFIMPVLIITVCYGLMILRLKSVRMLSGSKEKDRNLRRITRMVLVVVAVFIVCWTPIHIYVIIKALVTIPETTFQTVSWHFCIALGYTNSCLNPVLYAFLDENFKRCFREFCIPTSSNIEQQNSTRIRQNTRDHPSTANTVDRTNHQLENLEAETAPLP
Text: as §1, §2

[3] = Pharmacokinetics and brain distribution after single intraperitoneal dose in male C57BL/6 mice; conditions: for MRT last: MRTlast
Description: For each compound, a group of twenty-four male mice were administered with a solution formulation of the drug in normal saline intraperitoneally at a dose of 10 mg/kg. Blood samples (approximately 60 μL) were collected under light isoflurane anesthesia from the retro orbital plexus at 0.08, 0.25, 0.5, 1, 2, 4, 8 and 24 hr. Plasma samples were separated by centrifugation of whole blood and stored below −70° C. until bioanalysis. Immediately after collection of blood, brain samples were collected from each mouse at 0.08, 0.25, 0.5, 1, 2, 4, 8 and 24 hr. Brain samples were homogenized using ice-cold phosphate buffer saline (pH 7.4) and homogenates were stored below −70° C. until analysis. Total homogenate volume was three times the tissue weight. All samples were processed for analysis by protein precipitation using acetonitrile (ACN) and analyzed with fit-for-purpose LC/MS/MS method (LLOQ—1.01 ng/mL in plasma and brain). Pharmacokinetic parameters were calculated using the non-compartmental analysis tool of Phoenix WinNonlin® (Version 6.3).

[4] = BRET G protein activation, HEK-293T, mean ± SEM, read-out: EC50 Human MOR
[5] = brain, i.p. 10 mg/kg, male C57BL/6 mice
[6] = i.p. 10 mg/kg, male C57BL/6 mice
[7] = male, C57BL/6, mouse, in vivo, ip, 10 mg/kg
[8] = male, C57BL/6, mouse, in vivo, ip, 10 mg/kg, brain, i.p. 10 mg/kg, male C57BL/6 mice
[9] = male, C57BL/6, mouse, in vivo, ip, 10 mg/kg, plasma, i.p. 10 mg/kg, male C57BL/6 mice

| Compound | pEC50 [1] | pEC50 [2, 4] | also measured |
| --- | --- | --- | --- |
| CCCCCNC1c2ccccc2N(C)S(=O)(=O)c2ccccc21 (stereo not drawn) [compound 8, 6-Methyl-11-(pentylamino)-6,11-dihydrodibenzo[c,f][1,2]thiazepine 5,5-dioxide] | > 5.00 | > 5.00 | – |
| CCOC(=O)CCCCNC1c2ccccc2N(C)S(=O)(=O)c2cc(Cl)ccc21 (stereo not drawn) [compound 17, Ethyl 5-((3-chloro-6-methyl-5,5-dioxido-6,11-dihydrodibenzo[c,f][1,2]thiazepin-11-yl)amino)pentanoate] | > 5.00 | > 5.00 | – |
| CN1c2ccccc2C(NCCCCC(=O)O)c2ccc(Cl)cc2S1(=O)=O (stereo not drawn) [compound 18, 5-((3-Chloro-6-methyl-5,5-dioxido-6,11-dihydrodibenzo[c,f][1,2]thiazepin-11-yl)amino)pentanoic acid] | > 5.00 | > 5.00 | – |
| CCCCCNC1c2ccccc2N(C)S(=O)(=O)c2cc(Cl)ccc21 (stereo not drawn) [compound 19, 3-Chloro-6-methyl-11-(pentylamino)-6,11-dihydrodibenzo [c,f][1,2]thiazepine 5,5-dioxide] | > 5.00 | > 5.00 | – |
| CNC1c2ccccc2N(C)S(=O)(=O)c2cc(Cl)ccc21 (stereo not drawn) [compound 20, 3-Chloro-6-methyl-11-(methylamino)-6,11-dihydrodibenzo [c,f][1,2]thiazepine 5,5-dioxide] | > 5.00 | > 5.00 | – |
| CCCNC1c2ccccc2N(C)S(=O)(=O)c2cc(Cl)ccc21 (stereo not drawn) [compound 21, 3-Chloro-6-methyl-11-(propylamino)-6,11-dihydrodibenzo [c,f][1,2]thiazepine 5,5-dioxide] | > 5.00 | > 5.00 | – |
| CC(C)NC1c2ccccc2N(C)S(=O)(=O)c2cc(Cl)ccc21 (stereo not drawn) [compound 22, 3-Chloro-11-(isopropylamino)-6-methyl-6,11-dihydrodibenzo [c,f][1,2]thiazepine 5,5-dioxide] | > 5.00 | > 5.00 | – |
| COCCCNC1c2ccccc2N(C)S(=O)(=O)c2cc(Cl)ccc21 (stereo not drawn) [compound 23, 3-Chloro-11-((3-methoxypropyl)amino)-6-methyl-6,11-dihydrodibenzo [c,f][1,2]thiazepine 5,5-dioxide] | – | – | AUClast [3, 5]: 335.03 ng·h/g; CL [3, 5]: 260.44 mL/min/kg; half-life compared with tianeptine [3, 6]: much longer half-life; systemic exposure (AUC) compared with tianeptine [3, 6]: higher systemic exposure (AUC); AUC(0-t) [3, 7]: 3060 ng·h/mL; Cmax [3, 7]: 1540 ng/mL and 378 ng/g; MRT last [3, 8]: 1.27 h; MRT last [3, 9]: 2.29 h; half-life ([3]; male, C57BL/6, mouse, in vivo, ip, 10 mg/kg, T1/2, brain, i.p. 10 mg/kg, male C57BL/6 mice): 5.12 h; half-life ([3]; male, C57BL/6, mouse, in vivo, ip, 10 mg/kg, T1/2, plasma, i.p. 10 mg/kg, male C57BL/6 mice): 3.93 h; Tmax [3, 8]: 0.08 h; Tmax [3, 9]: 0.25 h; CL ([3]; plasma, i.p. 10 mg/kg, male C57BL/6 mice): 44.27 mL/min/kg |
| COCCCNC1c2ccccc2N(C)S(=O)(=O)c2cc(SC)ccc21 (stereo not drawn) [compound 44, 11-((3-Methoxypropyl)amino)-6-methyl-3-(methylthio)-6,11-dihydrodibenzo[c,f][1,2]thiazepine 5,5-dioxide] | > 5.00 | > 5.00 | – |
| CCOCCCNC1c2ccc(Br)cc2S(=O)(=O)N(C)c2ccsc21 (stereo not drawn) [compound 73, 7-Bromo-10-((3-ethoxypropyl)amino)-4-methyl-4, 10-dihydrobenzo[f]thieno[3,2-c][1,2]thiazepine 5,5-dioxide] | – | > 5.00 | – |
| CCOC(=O)CCCCCCNC1c2ccc(Br)cc2S(=O)(=O)N(C)c2ccsc21 (stereo not drawn) [compound 74, Ethyl 7-((7-bromo-4-methyl-5,5-dioxido-4, 10-dihydrobenzo[f]thieno[3,2-c][1,2]thiazepin-10-yl)amino)heptanoate] | – | > 5.00 | – |
| COCCCNC1c2ccccc2N(C)S(=O)(=O)c2cc(OCc3ccccc3)ccc21 (stereo not drawn) [compound 75, 3-(Benzyloxy)-11-((3-methoxypropyl)amino)-6-methyl-6,11-dihydrodibenzo[c,f][1,2]thiazepine 5,5-dioxide] | – | < 4.70 | – |
| COCCCNC1c2ccc(Cl)cc2S(=O)(=O)N(C)c2ccsc21 (stereo not drawn) [compound 77, 7-Chloro-10-((3-methoxypropyl)amino)-4-methyl-4, 10-dihydrobenzo[f]thieno[3,2-c][1,2]thiazepine 5,5-dioxide] | – | > 5.00 | – |
| CCOCCCNC1c2ccc(Cl)cc2S(=O)(=O)N(C)c2ccsc21 (stereo not drawn) [compound 78, 7-Chloro-10-((3-ethoxypropyl)amino)-4-methyl-4, 10-dihydrobenzo[f]thieno[3,2-c][1,2]thiazepine 5,5-dioxide] | – | > 5.00 | – |
| CCOC(=O)CCCCCCNC1c2ccc(Cl)cc2S(=O)(=O)N(C)c2ccsc21 (stereo not drawn) [compound 79, Ethyl 7-((7-chloro-4-methyl-5,5-dioxido-4, 10-dihydrobenzo[f]thieno[3,2-c][1,2]thiazepin-10-yl)amino)heptanoate] | – | > 5.00 | – |
| CN1c2ccccc2C(NCCCCCCC(=O)O)c2ccc(I)cc2S1(=O)=O (stereo not drawn) [compound 84, 7-((3-Iodo-6-methyl-5,5-dioxido-6,11-dihydrodibenzo [c,f][1,2]thiazepin-11-yl)amino)heptanoic acid hydrochloride salt] | – | – | pEC50 [2]: 7.40 |
